The test system of one data set is late asthmatic response. Description: Model experiment of asthma in guinea pigs (inhibition of late asthmatic response). The format is in vivo, guinea pig. The note with it: 10 mg/Kg orally 30 minutes before antigen; 6 animals; control 112 ± 17.8. How it is done: [Model experiment of asthma in guinea pigs. (Inhibition of late asthmatic response)]
Hartley strain female guinea pigs (SLC) having the body weight of about 350 g were used and 50 mg/Kg of cyclophosphamide (mfd. by Sigma Chemical Co.) was injected intraperitoneally. 2 Days after this pretreatment by injection, 1 mg of egg albumin (mfd. by Sigma Chemical Co.) and 100 mg of aluminum hydroxide (Wako Pure Chemical Industries Co., Ltd.) were injected intraperitoneally for sensitization. 3 Weeks after the sensitization, 10 μg of egg albumin and 100 mg of aluminum hydroxide were injected intraperitoneally for booster sensitization. 6 Weeks after the primary sensitization, asthma attach was induced by inhalation and exposure to egg albumin (4 mg/ml) by using a nebulizer (NE-U12: mfd. by Omron Corp.). The asthma reaction was determined by use of a body-plethysmography (using system developed by Uchida lecturer in internal department for respiratory organs at Tsukuba University; air-resist tube, respiratory amplifier and differential pressure transducer (mfd. by Nihon Koden); and osciloscope (mfd. by Iwasaki Tsushin)), so as to determine a […] of specific airway conductance (sGaw) under the condition without anesthesia. The sGaw value just before the administration of test comopound was measured and the value is referred to as 100. Test compound was suspended in 1% HPMC (hydroxymethylpropylcellulose mfd. by Shinetsu Chemical), and was administered orally 30 minutes before the exposure with the antigen. Then, sGaw value was measured in each points until 7 hours after the exposure with the antigen.

A short description of data set [1]: MTT assay, index of toxicity for A 549 cells. Format: cell-based. The note with it: human, a549 cells, control 100.0, read-out: Ratio of optical absorbance. The procedure: Test was conducted in accordance with the method as described in J. Immunol. Methods, Vol. 94, pp. 57-68, (1986). Cell strain RAW 264.7 derived from the macrophage of mouse was incubated similarly as in the method of Test Example 1(1). After that, MTT reagent (5 mg/ml) in 1/10 amount of the culture medium was added to the cells, and incubated for 4 hours. The supernatant of culture medium was taken off, then the cells were collected by using 1% SDS solution and the optical absorbance at 570-630 nm of the SDS solution was measured.
Cell strain A 549 (ATCC) derived from human alveolar epithelium cells was placed on each one of the wells on a microplate having 24-wells so as to put the cells in an amount of 3×10^5 cells/U (well). The cells were incubated for 24 hours in F-12 Nutrient Mixture culture medium (mfd. by GIBCO) to which 10% of equine serum, 100 U/ml of penicillin (mfd. by Dainippon Pharmaceutical Co., Ltd.) and 100 μg/ml of streptomycin (mfd. by Dainippon Pharmaceutical Co., Ltd.) were added.
On the other hand, the test culture medium, containing the test compound of Example 1 was prepared similarly as in the reference culture medium, except adding the test compound (1×10^-5, 1×10^-6 and 1×10^-7 M) dissolved in dimethyl sulfoxide (DMSO) at the same time of inducers-addition.
The concentration of IL-8 formed in the supernatant of each one of the culture media after 24-hour incubation was measured by IL-8 ELISA Kit Human (mfd. by genzyme). Further, MTT assay was conducted by the similar method as described in Text Example 2 to determine the index of toxicity for cells.

SMILES strings stand for the structures.

With `COCc1cc(=O)n2ncc(-c3ccc(Sc4ccccc4)cc3)c2[nH]1` [Example 1, 4,7-dihydro-5-methoxymethyl-7-oxo-3-(4-phenylthiophenyl)pyrazolo[1,5-a]pyrimidine], the “AUC (4-7 hours) of sGaw reaction” value in the data set on late asthmatic response stood at 32.8 ± 9.2. Further, the viability at 24 h, 10 µM in data set [1] (1 × 10^-5 M) is 126%. Also, the viability at 24 h, 1 µM in data set [1] (1 × 10^-6 M) worked out at 98.1%. Besides, the viability at 24 h, 0.1 µM in data set [1] (1 × 10^-7 M) is 108%.
